Reference: patent US12568967B2, “Compositions comprising pyridine carboxylate herbicides with synthetic auxin herbicides or auxin transport inhibitors” (priority 2018, dated 2026)

Assays:
[1] = test system: Viola tricolor (wild pansy, VIOTR); assay: Greenhouse postemergence trial VIOTR;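 note: greenhouse plants sprayed at second to third true leaf stage, injury rated visually after 20-22 d against solvent-blank sprayed controls, 0 meaning no injury and 100 complete kill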
[2] = test system: Helianthus annuus (common sunflower, HELAN); assay: Greenhouse postemergence trial HELAN; type: in vivo
Method: (§1) Seeds of the desired test plant species were planted in a 90:10% v/v (volume/volume) mixture of PRO-MIX® BX (Premier Tech Horticulture, Quakertown, PA, USA) and PROFILE® GREENS GRADE™ (Profile Products LLC, Buffalo Grove, IL, USA) planting mixture, which typically has a pH of 5.2 to 6.2 and an organic matter content of at least 50 percent, in plastic pots with a surface area of 103.2 square centimeters (cm^2). […] The plants were grown for 7-36 days (d) in a greenhouse with an approximate 14-hour (h) photo-period which was maintained at about 23° C. during the day and 22° C. during the night. Nutrients and water were added on a regular basis and supplemental lighting was provided with overhead metal halide 1000-Watt lamps as necessary. The plants were employed for testing when they reached the second or third true leaf stage.
(§2) Emulsifiable concentrates of each of each pyridine carboxylate herbicide (Compound A or Compound B) were prepared at 100 grams acid equivalent per liter (g ae/L). The emulsifiable concentrates also included a safener, cloquintocet-mexyl, at 120 grams active ingredient per liter (g ai/L), unless otherwise noted below. An aliquot of each emulsifiable concentrate was placed in a 25 mL glass vial and diluted with an aqueous mixture of 1.25% (v/v) ACTIROB® B esterified rapeseed oil (Bayer Crop Science, Research Triangle Park, NC, USA) or MSO® Concentrate with LECI-TECH® methylated soybean oil (Loveland Products, Loveland, CO, USA) to obtain concentrated stock solutions at the highest application rate for each herbicide, based upon a 12 milliliter (mL) application volume at a rate of 187 liters per hectare (L/ha). The concentrated stock solutions were further diluted with an aqueous mixture of 1.25% v/v ACTIROB® B or MSO® Concentrate with LECI-TECH® to obtain stock solutions at reduced application rates for each herbicide. Spray solutions of the herbicide combinations (Compound A or Compound B plus synthetic auxin herbicide or auxin transport inhibitor) were prepared by adding weighed amounts or aliquots of the synthetic auxin herbicide or auxin transport inhibitor to the stock solutions of Compound A or Compound B to form 12-mL spray solutions in two-way combinations.
(§3) The spray solutions were applied to the plant material with an overhead Mandel track sprayer equipped with 8002E nozzles calibrated to deliver 187 L/ha over an application area of 0.503 square meters (m^2) at a spray height of 18 inches (43 centimeters (cm)) above the average plant canopy. Control plants were sprayed in the same manner with the solvent blank. All pyridine carboxylate herbicide (component a) application rates are given as “g ae/ha” and all synthetic auxin herbicide or auxin transport inhibitor (component b) application rates are given as “g ai/ha.”
(§4) The treated plants and control plants were placed in a greenhouse as described above and watered by sub-irrigation to prevent wash-off of the test compounds. After 20-22 d, the condition of the test plants as compared with that of the control plants was determined visually and scored on a scale of 0 to 100 percent where 0 corresponds to no injury and 100 corresponds to complete kill.

[3] = test system: Polygonum convolvulus (wild buckwheat, POLCO); assay: Greenhouse postemergence trial POLCO; type: in vivo; details: for % visual injury (Obs): POLCO, alone 280 g/ha
[4] = test system: Matricaria chamomilla (wild chamomile, MATCH); assay: Greenhouse postemergence trial MATCH; type: in vivo; details: MATCH; alone 280 g/ha;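 note: greenhouse plants sprayed at second to third true leaf stage, injury rated by eye 20-22 d later versus solvent-blank controls on 0–100 scale, 0 no injury, 100 complete kill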
[5] = test system: Glycine max (volunteer soybean, GLXMA); assay: Greenhouse postemergence trial GLXMA; type: in vivo
Method: as §1, §2, §3, §4

[6] = test system: Chenopodium album L. (common lambsquarters, CHEAL); assay: Greenhouse postemergence trial CHEAL; type: in vivo; details: for % visual injury (Obs): CHEAL, alone 280 g/ha;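 for all read-outs here: greenhouse plants sprayed at second to third true leaf stage, injury rated by eye after 20-22 d versus solvent-blank sprayed controls, 0 = no injury, 100 = complete kill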
[7] = test system: Sinapis arvensis (wild mustard, SINAR); assay: Greenhouse postemergence trial SINAR; type: in vivo; details: SINAR; alone 280 g/ha
[8] = test system: Rumex obtusifolius (broad-leaf dock, RUMOB); assay: Greenhouse postemergence trial RUMOB; type: in vivo
[9] = test system: Kochia scoparia (kochia, KCHSC); assay: Greenhouse postemergence trial KCHSC; type: in vivo; details: for % visual injury (Obs): KCHSC, alone 280 g/ha
Method: as §1, §2, §3, §4

[10] = test system: Abutilon theophrasti (velvetleaf, ABUTH); assay: Greenhouse postemergence trial ABUTH; type: in vivo
Method: as §1, §2, §3, §4

[11] = test system: Amaranthus retroflexus (pigweed, AMARE); assay: Greenhouse postemergence trial AMARE; type: in vivo; details: for % visual injury (Obs): AMARE, alone 280 g/ha;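 for all read-outs here: Greenhouse-grown plants sprayed at second to third true leaf stage, injury rated by eye after 20-22 d versus solvent-blank sprayed controls, 0 = no injury, 100 = complete kill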
[12] = test system: Cirsium arvense (Canadian thistle, CIRAR); assay: Greenhouse postemergence trial CIRAR; type: in vivo; details: for % visual injury (Obs): CIRAR, alone 280 g/ha
[13] = test system: Stellaria media (chickweed, STEME); assay: Greenhouse postemergence trial STEME; type: in vivo
[14] = test system: Ipomoea hederacea (ivyleaf morningglory, IPOHE); assay: Greenhouse postemergence trial IPOHE; type: in vivo
[15] = test system: Brassica napus (winter rape, BRSNW); assay: Greenhouse postemergence trial BRSNW; type: in vivo; details: BRSNW; alone 280 g/ha
[16] = test system: Hordeum vulgare (spring barley, HORVS); type: in vivo; details: HORVS; alone 280 g/ha
Method: as §1, §2, §3, §4

[17] = test system: Triticum aestivum (spring wheat, TRZAS); type: in vivo; details: TRZAS; alone 280 g/ha
[18] = Dichlorprop-K 280 g/ha (Table 40)

For `CC(Oc1ccc(Cl)cc1Cl)C(=O)[O-].[K+]` (stereo not drawn) [Dichlorprop-K], the “VIOTR % visual injury Obs” value [1, 18] was 65%, the “HELAN % visual injury Obs” value [2, 18] was 90% and the “POLCO % visual injury Obs” value [3, 18] was 0%. For the same compound, the “% visual injury (Obs)” value [3] was 18%, the “% visual injury (Obs)” value [4] was 20% and the “GLXMA % visual injury Obs” value [5, 18] was 33%. The “% visual injury (Obs)” value [6] was 70%, the “CHEAL % visual injury Obs” value [6, 18] was 60% and the “% visual injury (Obs)” value [7] was 78%. For the same compound, the “RUMOB % visual injury Obs” value [8, 18] was 73%, the “KCHSC % visual injury Obs” value [9, 18] was 63% and the “% visual injury (Obs)” value [9] was 60%. For the same compound, the “ABUTH % visual injury Obs” value [10, 18] was 40%, the “% visual injury (Obs)” value [11] was 85% and the “AMARE % visual injury Obs” value [11, 18] was 10%. The “% visual injury (Obs)” value [12] was 15%, the “CIRAR % visual injury Obs” value [12, 18] was 63% and the “STEME % visual injury Obs” value [13, 18] was 0%. The “IPOHE % visual injury Obs” value [14, 18] was 75% and the “% visual injury (Obs)” value [15] was 63%.

`CCCCC(CC)COC(=O)COc1ccc(Cl)cc1C` (stereo not drawn) [MCPA EHE] was tested, and the “VIOTR % visual injury Obs” value ([1]; MCPA EHE 280 g/ha (Table 41)) was 0%, the “% visual injury (Obs)” value [16] was 0% and the “HELAN % visual injury Obs” value ([2]; MCPA EHE 280 g/ha (Table 41)) was 90%. For the same compound, the “POLCO % visual injury Obs” value ([3]; MCPA EHE 280 g/ha (Table 41)) was 0%, the “% visual injury (Obs)” value [3] was 10% and the “% visual injury (Obs)” value [4] was 20%. The “% visual injury (Obs)” value [17] was 0%, the “GLXMA % visual injury Obs” value ([5]; MCPA EHE 280 g/ha (Table 41)) was 30% and the “% visual injury (Obs)” value [6] was 70%. The “CHEAL % visual injury Obs” value ([6]; MCPA EHE 280 g/ha (Table 41)) was 73%, the “% visual injury (Obs)” value [7] was 80% and the “RUMOB % visual injury Obs” value ([8]; MCPA EHE 280 g/ha (Table 41)) was 25%. The “% visual injury (Obs)” value [9] was 10%, the “KCHSC % visual injury Obs” value ([9]; MCPA EHE 280 g/ha (Table 41)) was 0% and the “ABUTH % visual injury Obs” value ([10]; MCPA EHE 280 g/ha (Table 41)) was 5%. The “% visual injury (Obs)” value [11] was 50%, the “AMARE % visual injury Obs” value ([11]; MCPA EHE 280 g/ha (Table 41)) was 30% and the “% visual injury (Obs)” value [12] was 20%. The “CIRAR % visual injury Obs” value ([12]; MCPA EHE 280 g/ha (Table 41)) was 23%, the “STEME % visual injury Obs” value ([13]; MCPA EHE 280 g/ha (Table 41)) was 0% and the “IPOHE % visual injury Obs” value ([14]; MCPA EHE 280 g/ha (Table 41)) was 78%. The “% visual injury (Obs)” value [15] was 60%.
